Experimental data as given in patent US11753411B2, “Substituted pyrazolo[1,5-a]pyrimidines as TYK2 pseudokinase ligands” (Ventyx Biosciences, Inc., priority 2019, dated 2023).

tested on: IFN-a/Jak1 Tyk2; assay: Co-stimulation assay in lysed whole blood: IFNa (JAK1/TYK2) stimulated STAT1 phosphorylation; format: cell-based; details: Homo sapiens, 20 min, 100 ng/mL IFNa (with 10 ng/mL GM-CSF), pSTAT by flow cytometry
Description: Example 12: Co-Stimulation Assay in Lysed Whole Blood; JAK2: GM-CSF Stimulated STAT5 Phosphorylation and JAK1/TYK2 Stimulated STAT1 Phosphorylation Assay
Human Blood Lysis Using Abcam's RBC Lysis Buffer
Dilute RBC lysis buffer to 1× in distilled water. Add 2 mL blood to 38 mL of 1×RBC-lysis buffer. Incubate for 15 mins at RT, in dark. Spin at 300 g, 5 mins, to collect the pellet. Re-lyse if necessary. Re-suspend pellet in 5 mL of cRPMI.
Compound and Cytokine Treatment
Aliquot 80 μL of lysed human blood in to wells of 96 deep-well plate. Add 10 μl of (10× conc.) of different concentrations of compounds to all wells except controls (unstained and unstimulated) and mix it with the help of 100 uL multichannel. Add 10 uL of RPMI media in controls. For dilution of compounds and dilution range please refer Appendix. Incubate on water bath or CO2 incubator for 1 hour at 37° C. Add 10 μl of (10× conc.) of cytokine mix (GM-CSF and IFNa) (final conc.10 ng/mL of GM-CSF and 100 ng/mL of IFNa) to each well except unstimulated and unstained controls and incubate further for 20 minutes on water bath at 37° C.
Add 900 μL of prewarmed 1× Fix/Lyse solution (Appendix) and mix it properly using 1000 μl multichannel, incubate further on water bath at 37° C. for 10 minutes (which includes time of addition). Centrifuge at 800×g for 5 minutes at 40° C.; remove 900 uL of supernatant and add 900 μL of 1×PBS. Centrifuge at 800×g for 5 minutes at 40° C., remove 900 μL of supernatant. Wash one more time with 900 μL of PBS (optional) and resuspend pellets in 100 uL of PBS.
Disrupt the pellet by gentle tapping and resuspend in 1000 μL of BD Phosflow Perm Buffer III and incubate plate on ice for 30 minutes. Centrifuge plate at 800×g for 5 minutes at 40° C. Wash two more times with 1000 μL of BD Pharmingen Stain Buffer.
Disrupt the pellet by gentle tapping. Resuspend pellets in 100 uL of Stain Buffer and add 5 μL of pSTAT5_AF488 Ab and 5 uL of pSTAT_PE in all wells except unstained control and mix properly using 200 μl multichannel, incubate overnight at […]. Add 900 μL of wash buffer and centrifuge at 1800 rpm for 3 minutes at 40° C. Wash one more time with 1000 μL of BD Pharmingen Stain Buffer. Finally resuspend the pellet in 300 uL of BD Pharmingen Stain Buffer. Transfer the cells to 96-well v-bottom plate and acquire the cells in Beckman Coulter CytExpert. Acquiring cells in Flow Cytometer: Keep the threshold value to 250 and cell concentration should not exceed 100-500 cells/μL. Acquire at least 5,000-10,000 cells.
RPMI 1640 Complete Medium: RPMI 1640 media+10% FBS.
Cytokine dilution: 1) GM-CSF Stock at 100 ug/mL. Prepare an intermediate dilution of 1 ug/mL by adding 2 uL of stock into 198 uL of cRPMI. Further dilute to 100 ng/mL by adding 100 uL of the intermediate stock to 900 uL of cRPMI. 2) IFNa Stock at 200 ug/mL. Dilute IFNa stock 1:200 by adding 5 uL of stock into the 1000 uL of 100 ng/mL GM-CSF working stock as above to give a combined working stock of 1000 ng/mL of IFNa and 100 ng/mL GM-CSF (10×). Keep it on ice until used.
Lyse/Fix buffer preparation: Dilute 5× Lyse/Fix buffer to 1× using MQ water and keep at 37° C. until used.
BD Phosflow perm buffer III: Keep on ice/fridge.

CNc1cc(Nc2cc(C)cc(C)c2)nc2c(NC(=O)NCC#N)cnn12 [Compound 128, 1-(cyanomethyl)-3-(5-((3,5-dimethylphenyl)amino)-7-(methylamino)pyrazolo[1,5-a]pyrimidin-3-yl)urea] and CNC(=O)Nc1cnn2c(NC)cc(Nc3cc(C)ccc3OC)nc12 [Compound 68, 1-(5-((2-methoxy-5-methylphenyl)amino)-7-(methylamino)pyrazolo[1,5-a]pyrimidin-3-yl)-3-methylurea] cannot be ordered by IC50: less than 1000 nM for the first, less than 1000 nM for the second.

CNc1cc(Nc2cccc3c2OCCO3)nc2c(NC(=O)NC(C)C#N)cnn12 (stereo not shown) [Compound 119, 1-(1-cyanoethyl)-3-(5-((2,3-dihydrobenzo[b][1,4]dioxin-5-yl)amino)-7-(methylamino)pyrazolo[1,5-a]pyrimidin-3-yl)urea] and CNc1cc(Nc2cccc3c2OCCO3)nc2c(NC(=O)NC(C)C)cnn12 [Compound 148, 1-(5-((2,3-dihydrobenzo[b][1,4]dioxin-5-yl)amino)-7-(methylamino)pyrazolo[1,5-a]pyrimidin-3-yl)-3-isopropylurea] cannot be ordered by IC50: less than 1000 nM for the first, less than 1000 nM for the second.

Compared with CNc1cc(Nc2cccc3c2OCCO3)nc2c(NC(=O)NC3CCC3)cnn12 [Compound 93, 1-cyclobutyl-3-(5-((2,3-dihydrobenzo[b][1,4]dioxin-5-yl)amino)-7-(methylamino)pyrazolo[1,5-a]pyrimidin-3-yl)urea], CNc1cc(Nc2cccc3c2OCCO3)nc2c(NC(=O)N[C@H]3CC[C@H]3O)cnn12 [Compound 59, 1-(5-((2,3-dihydrobenzo[b][1,4]dioxin-5-yl)amino)-7-(methylamino)pyrazolo[1,5-a]pyrimidin-3-yl)-3-((1S,2R)-2-hydroxycyclobutyl)urea] is higher in IC50: less than 1000 nM for the first, 1000 to 10000 nM for the second.

First: CNC(=O)Nc1cnn2c(NC)cc(Nc3cccc4occc34)nc12 [Compound 104, 1-(5-(benzofuran-4-ylamino)-7-(methylamino)pyrazolo[1,5-a]pyrimidin-3-yl)-3-methylurea]
Second: CNC(=O)Nc1cnn2c(NC)cc(Nc3cccc(OC)c3OC)nc12 [Compound 97, 1-(5-((2,3-dimethoxyphenyl)amino)-7-(methylamino)pyrazolo[1,5-a]pyrimidin-3-yl)-3-methylurea]
The IC50 of the first is lower: less than 1000 nM for the first, 1000 to 10000 nM for the second.

Compared with CNC(=O)Nc1cnn2c(NC)cc(-c3cn(C)c4ncccc34)nc12 [Compound 74, 1-methyl-3-(5-(1-methyl-1H-pyrrolo[2,3-b]pyridin-3-yl)-7-(methylamino)pyrazolo[1,5-a]pyrimidin-3-yl)urea], CNC(=O)Nc1cnn2c(NC)cc(-c3cn(C(C)C)c4ncccc34)nc12 [Compound 72, 1-(5-(1-isopropyl-1H-pyrrolo[2,3-b]pyridin-3-yl)-7-(methylamino)pyrazolo[1,5-a]pyrimidin-3-yl)-3-methylurea] is lower in IC50: 1000 to 10000 nM for the first, less than 1000 nM for the second. The second is the more potent here.

Compared with CNC(=O)Nc1cnn2c(NC)cc(Nc3ccccc3-c3ccccc3)nc12 [Compound 165, 1-(5-([1,1′-biphenyl]-2-ylamino)-7-(methylamino)pyrazolo[1,5-a]pyrimidin-3-yl)-3-methylurea], CNC(=O)Nc1cnn2c(NC)cc(Nc3cc(F)cc(F)c3OC)nc12 [Compound 143, 1-(5-((3,5-difluoro-2-methoxyphenyl)amino)-7-(methylamino)pyrazolo[1,5-a]pyrimidin-3-yl)-3-methylurea] is lower in IC50: no less than 10000 nM for the first, less than 1000 nM for the second.

First: CNc1cc(Nc2cc(F)cc3c2OCCO3)nc2c(NC(=O)N[C@H]3C[C@@H]3F)cnn12 [Compound 41, 1-(5-((7-fluoro-2,3-dihydrobenzo[b][1,4]dioxin-5-yl)amino)-7-(methylamino)pyrazolo[1,5-a]pyrimidin-3-yl)-3-((1S,2S)-2-fluorocyclopropyl)urea]
Second: CNc1cc(Nc2cc(F)cc3c2OCCO3)nc2c(NC(=O)NC3CS(=O)(=O)C3)cnn12 [Compound 126, 1-(1,1-dioxidothietan-3-yl)-3-(5-((7-fluoro-2,3-dihydrobenzo[b][1,4]dioxin-5-yl)amino)-7-(methylamino)pyrazolo[1,5-a]pyrimidin-3-yl)urea]
The IC50 of the first is lower: less than 1000 nM for the first, 1000 to 10000 nM for the second.

CNc1cc(Nc2cccc3c2OCCO3)nc2c(NC(=O)NCC3(C#N)CC3)cnn12 [Compound 138, 1-((1-cyanocyclopropyl)methyl)-3-(5-((2,3-dihydrobenzo[b][1,4]dioxin-5-yl)amino)-7-(methylamino)pyrazolo[1,5-a]pyrimidin-3-yl)urea] and C#CCNC(=O)Nc1cnn2c(NC)cc(Nc3cccc4c3OCCO4)nc12 [Compound 101, 1-(5-((2,3-dihydrobenzo[b][1,4]dioxin-5-yl)amino)-7-(methylamino)pyrazolo[1,5-a]pyrimidin-3-yl)-3-(prop-2-yn-1-yl)urea] cannot be ordered by IC50: less than 1000 nM for the first, less than 1000 nM for the second.

Compared with CNc1cc(Nc2cccc3c2OCCO3)nc2c(NC(=O)NC3CC(C#N)C3)cnn12 (stereo not shown) [Compound 27, 1-(3-cyanocyclobutyl)-3-(5-((2,3-dihydrobenzo[b][1,4]dioxin-5-yl)amino)-7-(methylamino)pyrazolo[1,5-a]pyrimidin-3-yl)urea], CNc1cc(Nc2cccc3c2OCCO3)nc2c(NC(=O)NC3CC(F)(F)C3)cnn12 [Compound 34, 1-(3,3-difluorocyclobutyl)-3-(5-((2,3-dihydrobenzo[b][1,4]dioxin-5-yl)amino)-7-(methylamino)pyrazolo[1,5-a]pyrimidin-3-yl)urea] is higher in IC50: less than 1000 nM for the first, 1000 to 10000 nM for the second. The first is the more potent here.

CNc1c(F)c(Nc2cccc3c2OCCO3)nc2c(NC(=O)N[C@@H]3C[C@@H]3F)cnn12 [Compound 55, 1-(5-((2,3-dihydrobenzo[b][1,4]dioxin-5-yl)amino)-6-fluoro-7-(methylamino)pyrazolo[1,5-a]pyrimidin-3-yl)-3-((1R,2S)-2-fluorocyclopropyl)urea] and CNc1cc(Nc2cccc3c2OCCO3)nc2c(NC(=O)NC3CC(C)(O)C3)cnn12 (stereo not shown) [Compound 48, 1-(5-((2,3-dihydrobenzo[b][1,4]dioxin-5-yl)amino)-7-(methylamino)pyrazolo[1,5-a]pyrimidin-3-yl)-3-(3-hydroxy-3-methylcyclobutyl)urea] cannot be ordered by IC50: no less than 10000 nM for the first, no less than 10000 nM for the second.

Compared with CNc1cc(Nc2cccc3c2OCCO3)nc2c(NC(=O)NCC3CC3)cnn12 [Compound 103, 1-(cyclopropylmethyl)-3-(5-((2,3-dihydrobenzo[b][1,4]dioxin-5-yl)amino)-7-(methylamino)pyrazolo[1,5-a]pyrimidin-3-yl)urea], C#CCNC(=O)Nc1cnn2c(NC)cc(Nc3cc(F)cc4c3OCCO4)nc12 [Compound 111, 1-(5-((7-fluoro-2,3-dihydrobenzo[b][1,4]dioxin-5-yl)amino)-7-(methylamino)pyrazolo[1,5-a]pyrimidin-3-yl)-3-(prop-2-yn-1-yl)urea] is lower in IC50: 1000 to 10000 nM for the first, less than 1000 nM for the second. The second is the more potent here.

Compared with CNc1cc(Nc2cccc3nccnc23)nc2c(NC(=O)N[C@@H]3C[C@@H]3F)cnn12 [Compound 44, 1-((1R,2S)-2-fluorocyclopropyl)-3-(7-(methylamino)-5-(quinoxalin-5-ylamino)pyrazolo[1,5-a]pyrimidin-3-yl)urea], CNc1cc(-c2cn(C3CCOCC3)c3ncccc23)nc2c(NC(=O)N[C@H]3CC[C@H]3O)cnn12 [Compound 56, 1-((1S,2R)-2-hydroxycyclobutyl)-3-(7-(methylamino)-5-(1-(tetrahydro-2H-pyran-4-yl)-1H-pyrrolo[2,3-b]pyridin-3-yl)pyrazolo[1,5-a]pyrimidin-3-yl)urea] is higher in IC50: less than 1000 nM for the first, no less than 10000 nM for the second. The first is the more potent here.

same assay, conditions: lysed human whole blood; 100 ng/mL IFNa (with 10 ng/mL GM-CSF), 20 minutes; pSTAT by flow cytometry

For CNc1cc(Nc2c(F)ccc3c2OCCO3)nc2c(NC(=O)NCC#N)cnn12 [Compound 136, 1-(cyanomethyl)-3-(5-((6-fluoro-2,3-dihydrobenzo[b][1,4]dioxin-5-yl)amino)-7-(methylamino)pyrazolo[1,5-a]pyrimidin-3-yl)urea], the IC50 was 1000 to 10000 nM.
